Measurements taken from ChEMBL document CHEMBL1201862, “PubChem BioAssay data set” (2004).
Counter-ions that a name gives are not always drawn. Each block holds one compound with its values, some of them ahead of it. The source made the active and inactive calls.

Assays:
[1] = HepG2 cell cytotoxicity, dose response, cytotoxicity control for Shn3 inhibitor project, CellTiter-Glo, cherry-picked (AID 624134); assay type: functional, cell-based
[2] = Shn3 3'UTR reporter inhibitors, dose response, cell-based, Clone20 osteoblasts, firefly luciferase, cherry-picked (AID 624132); assay type: functional;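 also: firefly luciferase luminescence from reporter carrying the Shn3 3'UTR in osteoblasts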
[3] = control 3'UTR Renilla luciferase suppression, dose response, counter-screen for Shn3 inhibitor project, cell-based, Clone20-Shn3RL, cherry-picked (AID 624133); assay type: functional
Genome polyprotein = Genome polyprotein (dengue virus type 2, UniProt P29990); assay: Dengue-2 NS5 methyltransferase inhibitors, primary screen, biochemical, confirmation dose response (AID 588689); assay type: functional
HEK293 = assay: inhibitors of LMP1-driven NF-kB reporter, dose response, cell-based, HEK293, luciferase, cherry-pick (AID 588343); assay type: functional; details: Homo sapiens
Caspase-6 = target: T1, Caspase-6 (Homo sapiens, UniProt P55212); assay: human caspase-6 inhibitors, dose response, biochemical, VEID-R110 fluorescence, cherry-pick (AID 720632)
T1 sequence (P55212 whole entry): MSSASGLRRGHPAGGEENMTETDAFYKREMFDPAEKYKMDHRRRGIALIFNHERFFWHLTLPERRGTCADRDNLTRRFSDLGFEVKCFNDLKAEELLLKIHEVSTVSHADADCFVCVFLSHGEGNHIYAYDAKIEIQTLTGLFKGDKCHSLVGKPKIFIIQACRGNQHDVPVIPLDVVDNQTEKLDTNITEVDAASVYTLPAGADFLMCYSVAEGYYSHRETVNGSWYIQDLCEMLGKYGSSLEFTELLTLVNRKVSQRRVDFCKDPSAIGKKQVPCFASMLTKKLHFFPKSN

Paired box protein Pax-8 = Paired box protein Pax-8 (Homo sapiens, UniProt Q06710); assay: inhibitors of PAX8-driven TPO luciferase reporter, dose response, RMG-I cells, cherry-pick (AID 687027); assay type: functional, cell-based;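 also: luciferase reporter driven by Pax8 target thyroperoxidase promoter measured by SteadyGlo luminescence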
[4] = non-specific cell cytotoxicity, dose response, cytotoxicity control for PAX8 inhibitor project, plate reader, dry powder samples (AID 743021); assay type: functional, cell-based
[5] = NIH:OVCAR-3 ovarian cancer cell cytotoxicity, dose response, PAX8 inhibitor project, plate reader, dry powder samples (AID 743044); assay type: functional, cell-based
[6] = cytotoxicity in OVCAR8 ovarian cancer cells, dose response, PAX8 project, cell-based, plate reader, dry powder samples (AID 743197); assay type: functional; details: OVCAR-8
[7] = cytotoxicity toward HCT116 cells – cell-based, CellTiter-Glo luminescence, IC50, dose response (AID 1117332); assay type: functional; details: HCT-116
[8] = RKO cell viability reduction, dose response, CellTiter-Glo luminescence (AID 1117322); assay type: functional
[9] = HCT116 cell viability decrease, GSK3B pretreatment – CellTiter-Glo, IC50, dose response (AID 1117339); assay type: functional; details: HCT-116
[10] = Concentration-dependent survival of SW480 colon cancer line, luminescence detection with CellTiter-Glo, half-maximal inhibitory concentration (AID 1117338); assay type: functional
[11] = SNU-C1 cell viability reduction, dose response, CellTiter-Glo luminescence (AID 1117323); assay type: functional, cell-based
[12] = CellTiter-Glo luminescent dose response of DLD-1 viability loss (AID 1117352); assay type: functional
[13] = cytotoxicity toward Colo320 cells – cell-based, CellTiter-Glo luminescence, IC50, dose response (AID 1117334); assay type: functional; details: COLO 320
[14] = cytotoxicity toward HT-29 cells – cell-based, CellTiter-Glo luminescence, IC50, dose response (AID 1117330); assay type: functional

Chain of Paired box protein Pax-8 (Q06710 whole entry): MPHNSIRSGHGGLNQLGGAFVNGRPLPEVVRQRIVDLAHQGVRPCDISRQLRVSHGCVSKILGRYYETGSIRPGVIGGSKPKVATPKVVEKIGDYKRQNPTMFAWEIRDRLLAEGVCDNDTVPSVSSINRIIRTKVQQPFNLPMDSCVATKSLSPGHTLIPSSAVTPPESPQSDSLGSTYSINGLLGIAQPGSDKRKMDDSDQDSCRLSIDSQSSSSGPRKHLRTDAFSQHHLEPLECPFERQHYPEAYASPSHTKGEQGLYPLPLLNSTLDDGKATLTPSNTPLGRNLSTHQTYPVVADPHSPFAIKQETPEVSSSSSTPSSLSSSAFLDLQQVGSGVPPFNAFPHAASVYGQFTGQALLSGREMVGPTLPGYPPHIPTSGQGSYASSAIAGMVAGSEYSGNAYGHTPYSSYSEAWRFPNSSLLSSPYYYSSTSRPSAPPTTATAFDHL
Chain of Genome polyprotein (P29990 2492-3391 limits assumed): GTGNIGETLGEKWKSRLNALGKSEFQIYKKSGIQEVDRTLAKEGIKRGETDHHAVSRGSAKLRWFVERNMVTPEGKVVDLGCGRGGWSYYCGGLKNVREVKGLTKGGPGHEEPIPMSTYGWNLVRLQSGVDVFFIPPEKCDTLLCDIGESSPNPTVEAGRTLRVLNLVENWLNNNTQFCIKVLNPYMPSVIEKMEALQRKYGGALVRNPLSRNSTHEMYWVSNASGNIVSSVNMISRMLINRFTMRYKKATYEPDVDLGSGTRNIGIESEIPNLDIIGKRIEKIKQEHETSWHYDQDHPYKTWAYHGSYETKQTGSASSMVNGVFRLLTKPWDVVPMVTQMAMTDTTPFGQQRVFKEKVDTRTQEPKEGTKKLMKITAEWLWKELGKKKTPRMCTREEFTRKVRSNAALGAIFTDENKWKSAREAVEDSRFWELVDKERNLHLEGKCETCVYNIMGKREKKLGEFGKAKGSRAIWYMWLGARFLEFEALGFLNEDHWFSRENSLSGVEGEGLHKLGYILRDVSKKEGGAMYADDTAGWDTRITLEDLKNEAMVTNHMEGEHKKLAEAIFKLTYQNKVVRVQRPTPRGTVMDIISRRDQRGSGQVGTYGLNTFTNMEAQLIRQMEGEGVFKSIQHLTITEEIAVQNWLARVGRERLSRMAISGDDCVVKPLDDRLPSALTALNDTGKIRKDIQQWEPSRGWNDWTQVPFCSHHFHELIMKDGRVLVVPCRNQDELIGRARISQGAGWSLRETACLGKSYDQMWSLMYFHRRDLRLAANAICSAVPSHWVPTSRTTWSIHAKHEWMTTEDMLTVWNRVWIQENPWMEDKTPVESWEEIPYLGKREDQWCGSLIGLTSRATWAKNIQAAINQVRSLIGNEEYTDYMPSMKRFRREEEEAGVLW

Compound: O=C(Nc1ccc(Br)cc1)c1ccc(F)c(S(=O)(=O)NCc2cccs2)c1
AC50 [1]: 4.35 µM (active)
AC50 [2]: 3.05 µM (active)
AC50 [3]: 6.05 µM (active)

IC50 (Genome polyprotein): 69.4 µM (active)
Compound: CC(C)c1ccc(N2C(=O)C(Cl)=C(N3CCOCC3)C2=O)cc1

Compound: CC(=O)C1(C)CCC2C3C=C(C)C4=CC(=O)CCC4(C)C3CCC21C (stereo unspecified)
AC50 [1]: 45.2 µM (active)
AC50 [2]: 9.83 µM (active)
AC50 [3]: 29.1 µM (active)

Compound: COc1ccc(C(=O)Nc2ccc(N3CCN(C(=O)c4ccccc4C)CC3)cc2)cc1
AC50 (HEK293): 4.67 µM (active)

AC50 (Caspase-6): 40.1 µM (active)
Compound: O=C(COC(=O)c1ccc([N+](=O)[O-])o1)Nc1ccc(Br)cc1F

Compound: C(=NNc1ccc2ccccc2n1)c1ccccn1
AC50 (Paired box protein Pax-8): 2.95 µM (active)
AC50 [4]: 58.9 µM (active)

Compound: COCC(=O)N1CCC(Oc2ccc(C(=O)N3C[C@H]4CC[C@H]3C4)cc2)CC1
AC50 (HEK293): > 350 µM (inactive)

Compound: CC(C)CC#Cc1ccc2c(c1)O[C@H](CN(C)S(=O)(=O)c1ccc(F)cc1)[C@H](C)CN([C@H](C)CO)S2(=O)=O
AC50 [5]: 31.9 µM (active)
AC50 [6]: 57.1 µM (active)
AC50 (Paired box protein Pax-8): 14.5 µM (active)
AC50 [4]: 61.2 µM (active)

Compound: O=C(Nc1ccccc1)N1CCCCN2[C@H](CO)[C@H](c3ccc(C#Cc4ccccc4)cc3)[C@H]2C1
AC50 [5]: 20 µM (active)
AC50 (Paired box protein Pax-8): 16.8 µM (active)
AC50 [4]: 35.5 µM (active)

AC50 (Caspase-6): 10 µM (active)
Compound: Oc1ccc(/N=C/c2c(O)ccc3ccccc23)cc1

Compound: CCC(C(=O)OCCOCCN(CC)CC)c1ccccc1 (stereo unspecified) [BUTAMIRATE CITRATE]
IC50 [7]: > 20 µM (inactive)
IC50 [8]: > 20 µM (inactive)
IC50 [9]: > 20 µM (inactive)
IC50 [10]: > 20 µM (inactive)
IC50 [11]: > 20 µM (inactive)
IC50 [12]: > 20 µM (inactive)
IC50 [13]: > 20 µM (inactive)
IC50 [14]: > 20 µM (inactive)

Compound: CC(C)Cn1cnc2c1c(=O)n(C)c(=O)n2C [ISBUFYLLINE]
IC50 [7]: > 20 µM (inactive)
IC50 [8]: > 20 µM (inactive)
IC50 [9]: > 20 µM (inactive)
IC50 [10]: > 20 µM (inactive)
IC50 [11]: > 20 µM (inactive)
IC50 [12]: > 20 µM (inactive)
IC50 [13]: > 20 µM (inactive)
IC50 [14]: > 20 µM (inactive)
